Measurements: PMC4594923, “Food Polyphenols Fail to Cause a Biologically Relevant Reduction of COX-2 Activity” (PLoS ONE, 2015)
“Also recorded” adds a separate entry of the source.

What was measured:
MCP–1 = assay: kidney MCP–1 mRNA (qPCR) in LPS induced sepsis in mice; assay type: in vivo, C57BL/6N mice; conditions: compound i. p. 100 mg/kg bw 2 h before LPS, 24 h after LPS, vs. LPS group
Method: Samples were stored at -80°C till further analysis. […] Plasma was generated by centrifugation at 4000 g at 4°C and stored at -80°C till further analysis.
Tissue sections were stored in RNA-later immediately after organ retrieval. Total RNA was extracted using the RNeasy mini kit system (Qiagen, Hilden, Germany) and transcribed using Superscript II Reverse transcriptase (Invitrogen). Quantitative (q) PCR was performed on […] (Roche Diagnostics, Penzberg, Germany) using FastStart Sybr-Green chemistry. Gene-specific primers for IL–6 (Quantitec QT00098875, Qiagen) and MCP–1 (Quantitec QT00167832, Qiagen) were used for the gene of interest and HPRT served as house keeping gene for normalization (Quantitec QT00166768, Qigaen). Quantification was carried out using qgene software.

COX–2 protein [1] = conditions: cited from earlier work
[2] = i.p. 50 mg/kg bw, LPS 37.5 mg/kg bw, 28–42 h post LPS administration; cited from earlier work
COX–2 [3] = molecular target: T1, COX–2 (Homo sapiens, UniProt P35354); assay: cell-free COX–2 enzyme assay (PGE2 formation, LC-MS); assay type: biochemical
T1 sequence (P35354 18-604): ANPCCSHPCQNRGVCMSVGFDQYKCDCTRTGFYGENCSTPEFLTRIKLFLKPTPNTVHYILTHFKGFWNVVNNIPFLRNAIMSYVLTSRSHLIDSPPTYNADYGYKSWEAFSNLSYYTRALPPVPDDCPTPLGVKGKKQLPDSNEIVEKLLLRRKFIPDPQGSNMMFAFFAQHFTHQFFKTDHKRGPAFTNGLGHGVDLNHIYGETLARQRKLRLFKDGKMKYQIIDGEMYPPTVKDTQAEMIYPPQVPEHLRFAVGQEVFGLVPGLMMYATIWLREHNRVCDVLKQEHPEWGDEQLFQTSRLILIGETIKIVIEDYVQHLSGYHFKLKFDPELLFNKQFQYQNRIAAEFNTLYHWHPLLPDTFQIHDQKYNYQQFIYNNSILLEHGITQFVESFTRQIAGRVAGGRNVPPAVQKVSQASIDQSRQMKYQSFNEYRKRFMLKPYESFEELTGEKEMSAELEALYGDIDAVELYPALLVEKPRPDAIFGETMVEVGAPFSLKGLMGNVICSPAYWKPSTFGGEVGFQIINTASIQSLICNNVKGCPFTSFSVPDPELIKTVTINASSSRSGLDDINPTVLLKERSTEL
Method: (§1) The in vitro assays were performed as described [6, 16, 18] and COX metabolites were quantified by LC-MS [18].
(§2) Primary human monocytes were freshly isolated from human blood. Blood was collected from healthy human subjects after written informed consent was obtained. […] After 24 h, the supernatant was sampled for LC-MS and cells were collected for the COX–2 expression analysis by Western Blotting.
(§3) GraphPad Prism 5.0 (GraphPad Software, San Diego, USA) was used for data analysis, the fitting of dose response curves and calculation of the IC50 values. Statistical differences were determined by Dunnetts test (LPS vs. other groups).

COX–2 [4] = molecular target: T1, COX–2; assay: PGE2 formation in HCA–7 cells (24 h, LC-MS); assay type: cell-based; conditions: for changes of PGE2 formation in HCA–7 cells: non-cytotoxic concentrations, 24 h
Method: as §1
(§4) HCA–7 cells were incubated with sub-cytotoxic concentrations of the polyphenols dissolved in Tris buffered DMEM medium. Cytotoxicity of the polyphenols was evaluated by the lactate dehydrogenase leakage test (Cyto-Tox-ONE, Promega Mannheim, Germany). After 24 h the supernatant was collected for LC-MS analysis and the cells were harvested to analyze the COX–2 expression by Western Blotting.
After 24 h, the supernatant was sampled for LC-MS and cells were collected for the COX–2 expression analysis by Western Blotting.
as §3

COX–2 protein [5] = assay: COX–2 expression in HCA–7 cells (Western Blot); assay type: cell-based, human; conditions: 24 h, vs. control
Method: as §4

COX–2 [6] = molecular target: T1, COX–2; assay: PGE2 formation in LPS stimulated primary human monocytes (24 h, LC-MS); assay type: cell-based
Method: as §1, §2, §3

[7] = clinical chemistry in plasma (urea, creatinine, AST, ALT, LDH) in LPS induced sepsis in mice; assay type: in vivo, C57BL/6N mice; conditions: compound i. p. 100 mg/kg bw 2 h before LPS, 24 h after LPS
[8] = single soy meal containing 3.6 μmol total genistein/kg bw; cited from earlier work
COX–2 protein [9] = assay: COX–2 expression in LPS stimulated primary human monocytes (Western Blot); conditions: 24 h, vs. control
Method: as §2

Row | Structure (SMILES) | kidney MCP–1 mRNA levels (MCP–1) | COX–2 (protein) levels, RAW 264.7 cells (COX–2 protein [1]) | mortality [2] | effect on COX–2 dependent PGE2 formation, cell-free enzyme assay (COX–2 [3]) | IC50 (95% CI), COX–2 enzyme assay (COX–2 [3]; calculated based on PGE2, n = 3) | inhibition at 100 µM (COX–2 [4]; HCA-7, 100 μM, read-out: inhibition, HCA-7 cell line) [%] | changes of PGE2 formation in HCA–7 cells (COX–2 [4]) | COX-2 Expression, HCA-7 cell line (COX–2 protein [5]) | COX-2 Expression, HCA-7 cell line (COX–2 protein [5]; listed as genistein) | IC50 (COX–2 [6]; IC50 (95% CI), primary monocytes, LPS stimulated, calculated based on PGE2, n = 3, 24 h) [µM] | plasma ALT activity [7] | plasma AST activity [7] | maximal plasma concentrations (free and conjugated form) [8] [µM] | IC50 (COX–2 [3]; calculated based on PGE2, n = 3, read-out: IC50 (95% CI), COX–2 enzyme assay) [µM] | IC50 (95% CI), HCA-7 cell line (COX–2 [4]; calculated based on PGE2, n = 3, 24 h) | inhibition, primary monocytes (COX–2 [6]; up to 1 μM) | plasma LDH activity [7] | plasma creatinine level [7] | plasma urea level [7] | COX-2 Expression, primary monocytes (COX–2 protein [9])
1 | O=c1cc(-c2ccc(O)cc2)oc2cc(O)cc(O)c12 [Apigenin, apigenin] | did not see an effect | reduced COX–2 levels | reduced mortality |  |  |  |  |  |  |  |  |  |  |  |  |  |  |  |  | 
2 | O=c1c(-c2ccc(O)cc2)coc2cc(O)cc(O)c12 [Genistein, genistein] |  | reduced |  | no effect | no effect (up to 30 μM) | 54 | affected | 100 μM:COX–2 ↓ | decreased COX–2 expression | 7.4 | elevated | elevated | 4 |  |  |  |  |  |  | 
3 | Oc1ccc(/C=C/c2cc(O)cc3c2[C@@H](c2cc(O)cc(O)c2)[C@H](c2ccc(O)cc2)O3)cc1 [ε-Viniferin, ε-viniferin] |  |  |  | dose-dependently decreased; also recorded: inhibited |  |  | no or only slight | no effect (up to 1 μM) |  |  | elevated; also recorded: moderate elevation | elevated; also recorded: moderate elevation |  | 11 | no effect (up to 1 μM) | inhibition < 50% (up to 1 μM) | moderate elevation | elevation | elevation | no effect (up to 1 μM)
